From patent US6743630B2, “Method of preparing a protein array based on biochemical protein-protein interaction” (The Trustees of Columbia University in the City of New York, priority 2002, dated 2004)
No end group written: not given here.

Test system: Fas/FAP-1 binding
Experiment: In vitro inhibition assay of Fas/FAP-1 binding (GST-Fas, 35S-labeled FAP-1)
Details: 15-mer peptide 1-1000 μM; human PAMP 1 mM; peptides acetylated
Experimental: 3A. Inhibition assay of Fas/FAP-1 binding using the C-terminal 15 amino acids of Fas. GST-Fas fusion protein (191-355) was used for in vitro binding assay (lane 1, 3-10). GST-Fas fusion protein (191-320) (lane 2) and 1 mM human PAMP (N-terminal 20 amino acids of proadrenomedullin, M. W. 2460.9) (lane 3) were used as negative controls. The concentrations of the C-terminal 15 amino acids added were 1 (lane 4), 3 (lane 5), 10 (lane 6), 30 (lane 7), 100 (lane 8), 300 (lane 9), and 1000 μM (lane 10).
HFAP-10 cDNA (Sato, et al. 1995) subcloned into the Bluescript vector pSK-II (Stratagene) was in vitro-translated from an internal methionine codon in the presence of ^35S-L-methionine using a coupled in vitro transcription/translation system (Promega, TNT lysate) and T7 RNA polymerase. […] After washing vigorously 4 times in the same buffer, associated proteins were recovered with the glutathione-Sepharose beads by centrifugation, eluted into boiling Laemmli buffer, and analyzed by SDS-PAGE and fluorography.
In vitro-translated [^35S ]HFAP-1 was purified with a NAP-5 column (Pharmacia) and incubated with 3 μM of GST-fusion proteins for 16 hours at 4° C. After washing 4 times in the binding buffer, radioactivity incorporation was determined in a β counter. […]

Fas/FAP-1 binding, sequence (Q12923 1361-1456 limits assumed): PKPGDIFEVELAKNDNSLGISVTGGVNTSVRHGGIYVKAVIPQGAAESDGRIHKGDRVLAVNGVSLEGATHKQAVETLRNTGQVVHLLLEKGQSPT

| Substance | inhibitory effect on binding of in vitro-translated FAP-1 to GST-Fas |
| --- | --- |
| synthetic 15 amino acids of Fas: synthetic peptide of the C-terminal 15 amino acids of Fas (Ac-DSENSNFRNEIQSLV) | dramatically reduced and dependent on the concentration |
| human PAMP peptide: N-terminal 20 amino acids of proadrenomedullin, negative control (ARLDVASEFRKKWNKWALSR; ends and bridges not checked; UniProt P35318 22-41, looked up) | no effect |
